“And” between values parts separate entries of the source, which are not always exact repeats. Equal values may be shown once. Read-outs that look alike come from different tables or passages of the source.

The target of one data set is T1, hPEPT1 (Homo sapiens, UniProt P46059).
T1 construct: endogenous in cells; host or cells: Caco-2 (human colon carcinoma, ATCC)
T1 sequence (P46059 1-708): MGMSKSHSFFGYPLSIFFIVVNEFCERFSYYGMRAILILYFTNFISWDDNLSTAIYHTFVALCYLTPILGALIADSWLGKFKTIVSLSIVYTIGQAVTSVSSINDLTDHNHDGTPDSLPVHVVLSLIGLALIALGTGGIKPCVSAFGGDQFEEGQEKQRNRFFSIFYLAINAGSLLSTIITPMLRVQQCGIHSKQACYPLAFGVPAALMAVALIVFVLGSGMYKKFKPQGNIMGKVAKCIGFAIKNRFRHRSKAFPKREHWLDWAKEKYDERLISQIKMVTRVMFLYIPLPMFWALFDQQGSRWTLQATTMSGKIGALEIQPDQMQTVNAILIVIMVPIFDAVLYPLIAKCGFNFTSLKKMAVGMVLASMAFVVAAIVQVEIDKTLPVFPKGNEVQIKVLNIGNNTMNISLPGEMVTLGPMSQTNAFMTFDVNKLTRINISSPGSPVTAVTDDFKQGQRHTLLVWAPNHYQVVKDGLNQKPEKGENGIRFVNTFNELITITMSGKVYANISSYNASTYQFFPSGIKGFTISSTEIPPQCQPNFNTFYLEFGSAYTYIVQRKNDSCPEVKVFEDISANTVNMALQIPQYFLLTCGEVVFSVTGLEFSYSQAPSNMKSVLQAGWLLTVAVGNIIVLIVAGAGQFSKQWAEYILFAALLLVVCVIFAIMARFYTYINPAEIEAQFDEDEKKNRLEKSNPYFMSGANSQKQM
The experiment in a line: [3H] Glycylsarcosine uptake and its inhibition in Caco-2 cells (affinity towards peptide transporter). The format is cell-based. On the technique in general: Caco-2 cells form a polarised layer with tight junctions and transporters.

In a further data set the test system is Caco-2 cell suspension. The conditions noted are these: Caco-2, pH 7.4.
Another data set relates to VZV. The experiment in a line: In vitro antiviral screening, CPE inhibition in HFF cells. Format: cell-based, varicella zoster virus. The following applies: VZV, CPE Inhibition.
The test system of data set [1] is rabbit corneal cell line (SIRC). The following applies: SIRC cells.
The subject of data set [2] is oligopeptide transporter on the rabbit cornea.
For the next data set, the system named is EBV. The experiment in a line: In vitro antiviral screening, VCA Elisa. Format: cell-based, epstein-barr virus. The conditions noted are these: for EC50: EBV, VCA Elisa.
The subject of the next data set is HSV-1. The experiment in a line: In vitro antiviral screening, CPE inhibition in HFF cells. The format is cell-based, herpes simplex virus 1.
For data set [3] the following is noted: for first order hydrolytic rate constant k: 37° C.
Where [4] appears, read: pH 1.2, * = no measurable degradation during 7 day experiment.
Setting [5] is: pH 2.6, * = no measurable degradation during 7 day experiment.

Broadly, the IC50 is the concentration that gives 50% inhibition. By Ki is commonly meant the dissociation constant of the complex between target and ligand, obtained from inhibition or displacement. `CC(C)C(N)C(=O)NC(C(=O)OCCOCn1cnc2c(=O)[nH]c(N)nc21)C(C)C` (stereo not drawn) [Val-Val-ACV, Val-Valacyclovir] had a t1/2 (rabbit, tissue homogenate) of 84 min and a t1/2 in the data set on Caco-2 cell suspension (human) of 33.2 ± 6.9 min. The “Vmax of Gly-Sar uptake in presence of the drug” value on hPEPT1 stood at 0.099 ± 0.10 µmol/min/mg. The 50% inhibitory concentration (IC50) at hPEPT1 (read-out: IC50 of inhibition of [3H] Gly-Sar uptake) was 3460 ± 210 µM. Besides, the Ki on hPEPT1 (read-out: Ki) is 1940 µM and 1890 µM and 2510 µM. Also, the “10^2 × kobs” value with Caco-2 cell suspension is listed as 2.14 ± 0.44 min^−1mg^−1 protein. Further, the figures for the EC50 with VZV, with EBV and with HSV-1 (read-out: EC50 against HSV-1) were 0.09 µM, 93.1 µM and 6.14 µM, respectively. The percent survival is given as 86.3% in data set [1] (0.25 mM); 85.8% in data set [1] (0.5 mM); 87.0% in [1] (1 mM); 87.0% in data set [1] (2 mM); 99.3% in [1] (5 mM); 54.03% in data set [1] (10 mM). Besides, in data set [1] (5 mM), the “% viable cells” value came to 90.1±4.6%. Also, the “Papp (% Control) of [3H] Val-ACV” value in data set [2] is 18.6 (±8.9) % Control. Moreover, the “first order hydrolytic rate constant k” value in data set [3] (setting [4]) is 0.0062 k × 10^3 min^−1; in [3] (setting [5]), 0.0051 k × 10^3 min^−1; in [3] (pH 7.4), 0.107 k × 10^3 min^−1; in data set [3] (pH 9.0), 0.24 k × 10^3 min^−1. The “stability as an ophthalmic solution” value in [3] (pH 5.6, concluded from rate constants) was “stable for two years”.

On to `CC(C)[C@H](N)C(=O)OCCOCn1cnc2c(=O)[nH]c(N)nc21` [Val-ACV, L-Valine-acyclovir], for which the “hydrolytic rate constant k” value runs as follows: (Aqueous Humor) 21.8 (±1.2) k × 10^3 min^−1 mg^−1 protein; (Cornea homogenate) 8.1 (±1.2) k × 10^3 min^−1 mg^−1 protein; (Iris-Ciliary Body homogenate) 283.1 (±19.7) k × 10^3 min^−1 mg^−1 protein; (Lens homogenate) 10.1 (±0.3) k × 10^3 min^−1 mg^−1 protein; (Vitreous Humor) 7.1 (±0.9) k × 10^3 min^−1 mg^−1 protein. This compound also showed an inhibition constant Ki at hPEPT1 of 1410 ± 560 µM. The “Vmax of Gly-Sar uptake in presence of the drug” value on hPEPT1 stood at 0.081 ± 0.09 µmol/min/mg. Also, the “10^2 × kobs” value with Caco-2 cell suspension (human) was 0.56 ± 0.038 min^−1mg^−1 protein. For the same compound, the EC50 was < 0.08 µM in the data set with VZV (Human alphaherpesvirus 3, HFF); 0.55 µM with EBV (human gammaherpesvirus 4); 9.1 µM in the data set with HSV-1 (Human alphaherpesvirus 1, HFF, read-out: EC50 (concentration required to inhibit viral cytopathogenicity by 50%), HSV-1, CPE Inhibition); 9.1 µM in the data set on HSV-1 (Human alphaherpesvirus 1, HFF, HSV-1, running text, read-out: EC50 against HSV-1). For the same compound, the “% viable cells” value in data set [1] (5 mM) was determined as 89.3±5.1%. In data set [2], the “Papp (% Control) of [3H] Val-ACV” value is recorded as 20.1 (±6.7) % Control. In addition, the “SI (Selectivity Index) = CC50/EC50” value in the data set on EBV is reported as “SI > 250”. Further, the “first order hydrolytic rate constant k” value is 1.22 k × 10^3 min^−1 in [3] (setting [4]); 0.41 k × 10^3 min^−1 in [3] (setting [5]); 0.008 k × 10^3 min^−1 in [3] (pH 4.2, * = no measurable degradation during 7 day experiment); 0.16 k × 10^3 min^−1 in [3] (pH 5.6, * = no measurable degradation during 7 day experiment); 0.67 k × 10^3 min^−1 in data set [3] (pH 7.4); 1.63 k × 10^3 min^−1 in data set [3] (pH 9.0).
